Results from patent US6677368B2, “4-aryl substituted indolinones” (Sugen, Inc., priority 2000, dated 2004).

What was measured:
Type in all cases: biochemical
[1] = target: FGFR1 (Homo sapiens, UniProt P11362); experiment: FGFR1 bioassay (ELISA, in vitro kinase activity); conditions: purified GST-FGFR1, poly(Glu-Tyr) substrate
Procedure: This assay is used to measure the in vitro kinase activity of FGF1-R in an ELISA assay.
1. Costar 96-well ELISA plates (Corning Catalog #3369).
2. Poly(Glu-Tyr) (Sigma Catalog #P0275).
4. 50 mM Hepes Buffer Solution.
5. Blocking Buffer (5% BSA/PBS).
6. Purified GST-FGFR1 (SUGEN, Inc.)
7. Kinase Dilution Buffer. Mix 500 μl 1M Hepes (GIBCO), 20 μl 5% BSA/PBS, 10 μl 100 mM sodium orthovanadate and 50 μl 5M NaCl.
9. ATP/MnCl2 phosphorylation mix: mix 20 μL ATP, 400 μL 1M MnCl2 and 9.56 ml dH2O.
10. NUNC 96-well V bottom polypropylene plates (Applied Scientific Catalog #AS-72092).
12. 0.05% TBST Add 500 μL TWEEN to 1 liter TBS.
13. Rabbit polyclonal anti-phosphotyrosine serum (SUGEN, Inc.).
14. Goat anti-rabbit IgG peroxidase conjugate (Biosource, Catalog #ALI0404).
1. Coat Costar 96 well ELISA plates with 1 μg per well Poly(Glu-Tyr) in 100 μl PBS. Store overnight at 4° C.
2. Wash coated plates once with PBS.
3. Add 150 μL of 5%BSA/PBS Blocking Buffer to each well. Incubate, with shaking, for 1 hr at room temperature.
4. Wash plate 2× with PBS, then once with 50 mM Hepes. Pat plates on a paper towel to remove excess liquid and bubbles.
5. Add 25 μL of 0.4 mM test compound in 4% DMSO or 4% DMSO alone (controls) to plate.
6. Dilute purified GST-FGFR1 in Kinase Dilution Buffer (5 ng kinase/50 μl KDB/well).
7. Add 50 μL of diluted kinase to each well.
8. Start kinase reaction by adding 25 μl/well of freshly prepared ATP/Mn++ (0.4 ml 1M MnCl2, 40 μL 10 mM ATP, 9.56 ml dH2O), freshly prepared).
9. Stop reaction with 25 μL of 0.5M EDTA.
10. Wash plate 4× with fresh TBST.
11. Make up Antibody Dilution Buffer: For 50 ml, mix 5 ml of 5% BSA, 250 μl of 5% milk and 50 μl of 100 mM sodium vanadate, bring to final volume with 0.05% TBST.
12. Add 100 μl per well of anti-phosphotyrosine (1:10000 dilution in ADB). Incubate, with shaking for 1 hr. at room temperature.
14. Add 100 μl per well of Biosource Goat anti-rabbit IgG peroxidase conjugate (1:6000 dilution in ADB). Incubate, with shaking for 1 hr. at room temperature.
15. Wash as in step 10 and then with PBS to remove bubbles and excess TWEEN.
16. Add 100 μl of ABTS/H2O2 solution to each well.
17. Incubate, with shaking, for 10 to 20 minutes. Remove any bubbles.
18. Read assay on Dynatech MR7000 ELISA reader: test filter at 410 nM, reference filter at 630 nM.

[2] = target: T1, PDGFR (UniProt P09619); experiment: PDGFR bioassay (ELISA, in vitro kinase activity); conditions: PDGFR-β expressing NIH 3T3 cell lysate, 20 μM ATP
T1 construct: PDGFR-β expressing NIH 3T3 cell lysate (SUGEN, Inc.)
Procedure: This assay is used to the in vitro kinase activity of PDGFR in an ELISA assay.
1. Corning 96-well ELISA plates
2. 28D4C10 monoclonal anti-PDGFR antibody (SUGEN, Inc.).
5. Blocking Buffer (same as for EGFR bioassay).
6. PDGFR-β expressing NIH 3T3 cell lysate (SUGEN, Inc.).
11. Kinase buffer phosphorylation mix: for 10 ml, mix 250 μl 1M TRIS, 200 μl 5M NaCl, 100 μl 1M MnCl2 and 501l 100 mM Triton X-100 in enough dH2O to make 10 ml.
12. NUNC 96-well V bottom polypropylene plates.
14. Rabbit polyclonal anti-phosphotyrosine serum (SUGEN, Inc.).
15. Goat anti-rabbit IgG peroxidase conjugate (Biosource Cat. No. ALI0404).
17. Hydrogen peroxide, 30% solution.
1. Coat Corning 96 well ELISA plates with […] 28D4C 10 in 100 μl PBS per well, hold overnight at 4° C.
2. Remove unbound 28D4C10 from wells by inverting plate to remove liquid. Wash 1× with dH2O. Pat the plate on a paper towel to remove excess liquid.
3. Add 150 μl of Blocking Buffer to each well. Incubate for 30 min. at room temperature with shaking.
4. Wash plate 3× with deionized water, then once with TBST. Pat plate on a paper towel to remove excess liquid and bubbles.
5. Dilute lysate in HNTG (10 μg lysate/100 μl HNTG).
6. Add 100 μl of diluted lysate to each well. Shake at room temperature for 60 min.
7. Wash plates as described in Step 4.
8. Add 80 μl working kinase buffer mix to ELISA plate containing captured PDGFR.
9. Dilute test compound 1:10 in TBS in 96-well polypropylene plates.
10. Add 10 μl diluted test compound to -ELISA plate. To control wells, add 10 μl TBS+10% DMSO. Incubate with shaking for 30 minutes at room temperature.
11. Add 10 μl ATP directly to all wells except negative control well (final well volume should be approximately 100 μl with 20 μM ATP in each well.) Incubate 30 minutes with shaking.
12. Stop reaction by adding 10 μl of EDTA solution to each well.
13. Wash 4× with deionized water, twice with TBST.
14. Add 100 μl anti-phosphotyrosine (1:3000 dilution in TBST) per well.
Incubate with shaking for 30-45 min. at room temperature.
16. Add 100 μl Biosource Goat anti-rabbit IgG peroxidase conjugate (1:2000 dilution in TBST) to each well. Incubate with shaking for 30 min. at room temperature.
18. Add 100 μl of ABTS/H2O2 solution to each well.
19. Incubate 10 to 30 minutes with shaking. Remove any bubbles.
20. If necessary stop reaction with the addition of 100 μl 0.2 M HCl per well.
21. Read assay on Dynatech MR7000 ELISA reader with test filter at 410 nM and reference filter at 630 nM.

[3] = target: FGFR3 (Homo sapiens, UniProt P22607); experiment: FGFR3 kinase inhibition
Sequence of FGFR3 (P22607 23-806, species assumed): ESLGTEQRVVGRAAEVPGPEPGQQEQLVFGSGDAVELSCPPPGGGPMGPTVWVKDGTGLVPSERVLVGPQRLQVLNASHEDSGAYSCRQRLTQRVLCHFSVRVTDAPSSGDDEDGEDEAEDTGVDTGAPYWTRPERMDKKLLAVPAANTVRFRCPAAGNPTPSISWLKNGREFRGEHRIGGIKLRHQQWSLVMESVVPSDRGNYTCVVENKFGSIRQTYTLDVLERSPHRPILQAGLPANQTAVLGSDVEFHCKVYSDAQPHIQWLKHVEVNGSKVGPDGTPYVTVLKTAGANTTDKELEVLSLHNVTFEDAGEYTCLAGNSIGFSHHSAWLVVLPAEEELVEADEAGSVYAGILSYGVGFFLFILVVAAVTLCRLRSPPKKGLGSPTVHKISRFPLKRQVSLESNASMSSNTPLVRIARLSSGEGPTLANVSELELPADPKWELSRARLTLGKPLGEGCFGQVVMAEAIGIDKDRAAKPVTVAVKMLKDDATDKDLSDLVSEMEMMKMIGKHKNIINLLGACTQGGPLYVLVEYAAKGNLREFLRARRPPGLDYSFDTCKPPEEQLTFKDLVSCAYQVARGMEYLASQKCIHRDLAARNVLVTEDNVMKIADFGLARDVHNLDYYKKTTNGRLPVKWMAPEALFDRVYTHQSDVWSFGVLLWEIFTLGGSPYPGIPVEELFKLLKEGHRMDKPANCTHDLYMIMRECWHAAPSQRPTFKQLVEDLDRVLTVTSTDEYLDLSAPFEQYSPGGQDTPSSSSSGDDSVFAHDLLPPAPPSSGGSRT

Sequence of FGFR1 (P11362 22-822, species assumed): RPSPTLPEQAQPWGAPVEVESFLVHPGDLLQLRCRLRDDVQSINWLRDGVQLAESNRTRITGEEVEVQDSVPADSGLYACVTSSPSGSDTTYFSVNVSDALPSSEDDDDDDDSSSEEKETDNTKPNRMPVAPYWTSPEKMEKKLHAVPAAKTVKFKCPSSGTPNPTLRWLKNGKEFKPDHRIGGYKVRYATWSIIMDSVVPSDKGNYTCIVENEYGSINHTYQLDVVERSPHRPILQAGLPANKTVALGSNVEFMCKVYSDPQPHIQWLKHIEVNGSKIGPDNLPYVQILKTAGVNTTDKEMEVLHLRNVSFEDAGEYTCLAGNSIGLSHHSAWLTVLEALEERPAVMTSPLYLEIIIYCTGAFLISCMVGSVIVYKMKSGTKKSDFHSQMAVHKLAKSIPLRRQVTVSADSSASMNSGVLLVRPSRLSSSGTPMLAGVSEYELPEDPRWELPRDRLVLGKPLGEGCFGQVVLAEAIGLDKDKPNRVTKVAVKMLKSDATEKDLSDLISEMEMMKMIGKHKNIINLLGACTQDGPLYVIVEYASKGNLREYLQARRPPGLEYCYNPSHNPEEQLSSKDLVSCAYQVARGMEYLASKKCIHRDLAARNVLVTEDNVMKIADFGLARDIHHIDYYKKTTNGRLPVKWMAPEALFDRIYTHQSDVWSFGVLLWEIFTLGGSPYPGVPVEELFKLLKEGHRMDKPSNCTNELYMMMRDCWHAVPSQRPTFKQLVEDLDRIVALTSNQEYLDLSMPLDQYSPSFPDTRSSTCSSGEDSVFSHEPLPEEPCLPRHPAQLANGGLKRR

Structure (SMILES)	IC50 [1] [µM]	IC50 [2] [µM]	IC50 [3] [µM]
CCN(CC)CCNC(=O)c1c(C)[nH]c(/C=C2\C(=O)Nc3cccc(-c4ccccc4)c32)c1C [Example 3, 2,4-Dimethyl-5-(2-oxo-4-phenyl-1,2-dihydro-indol-3-ylidenemethyl)-1H-pyrrole-3-carboxylic Acid (2-Diethylamino-ethyl)-amide]	0.031	0.44	
Cc1[nH]c(/C=C2\C(=O)Nc3cccc(-c4ccc(F)cc4)c32)c(C)c1C(=O)N1CCN(C)CC1 [Example 4, 3-[3,5-Dimethyl-4-(4-methyl-piperazine-1-carbonyl)-1H-pyrrol-2-ylmethylene]-4-(4-fluoro-phenyl)-1,3-dihydro-indol-2-one]	0.74	14.6	
Cc1cc(C(=O)N2CC[C@H](N(C)C)C2)c(/C=C2\C(=O)Nc3cccc(-c4ccc(F)cc4)c32)[nH]1 [Example 10, 3-[3-((S)-3-Dimethylamino-pyrrolidine-1-carbonyl)-5-methyl-1H-pyrrol-2-ylmethylene]-4-(4-fluoro-phenyl)-1,3-dihydro-indol-2-one]	1.54	11.9	
Cc1[nH]c(/C=C2\C(=O)Nc3cccc(-c4cccc(F)c4)c32)c(C)c1C(=O)NCCn1ccnn1 [Example 15, 5-[4-(3-Fluoro-phenyl)-2-oxo-1,2-dihydro-indol-3-ylidenemethyl]-2,4-dimethyl-1H-pyrrole-3-carboxylic Acid (2-[1,2,3]Triazol-1-yl-ethyl)-amide]	2.07	10.1	0.072
Cc1[nH]c(/C=C2\C(=O)Nc3cccc(-c4ccc(Cl)cc4)c32)c(C)c1C(=O)N1CCN(C)CC1 [Example 20, 4-(4-Chloro-phenyl)-3-[3,5-dimethyl-4-(4-methyl-piperazine-1-carbonyl)-1H-pyrrol-2-ylmethylene]-1,3-dihydro-indol-2-one]	1.15	3.39	1.29
Cc1cc(C(=O)N2CC[C@@H](N(C)C)C2)c(/C=C2\C(=O)Nc3cccc(-c4ccc(Cl)cc4)c32)[nH]1 [Example 25, 4-(4-Chloro-phenyl)-3-[3-((R)-3-dimethylamino-pyrrolidine-1-carbonyl)-5-methyl-1H-pyrrol-2-ylmethylene]-1,3-dihydro-indol-2-one]	0.56	11.7	0.34
Cc1cc(C(=O)N2C[C@@H](C)N[C@@H](C)C2)c(/C=C2\C(=O)Nc3cccc(-c4ccc(Cl)cc4)c32)[nH]1 [Example 27]	0.63	> 20	0.61
Cc1cc(C(=O)N2CC[C@H](N(C)C)C2)c(/C=C2\C(=O)Nc3cccc(-c4cccc(Cl)c4)c32)[nH]1 [Example 32, 4-(3-Chloro-phenyl)-3-[3-((S)-3-dimethylamino-pyrrolidine-1-carbonyl)-5-methyl-1H-pyrrol-2-ylmethylene]-1,3-dihydro-indol-2-one]	0.35	11.6	1.77
Cc1cc(C(=O)NCCn2ccnn2)c(/C=C2\C(=O)Nc3cccc(-c4cccc(Cl)c4)c32)[nH]1 [Example 34, 2-[4-(3-Chloro-phenyl)-2-oxo-1,2-dihydro-indol-3-ylidenemethyl]-5-methyl-1H-pyrrole-3-carboxylic Acid (2-[1,2,3]Triazol-1-yl-ethyl)-amide]	0.5	> 20	0.94
Cc1cc(C(=O)N2C[C@@H](C)N[C@@H](C)C2)c(/C=C2\C(=O)Nc3cccc(-c4cccc(Cl)c4)c32)[nH]1 [Example 35, 4-(3-Chloro-phenyl)-3-[3-((cis)-3,5-dimethyl-piperazine-1-carbonyl)-5-methyl-1H-pyrrol-2-ylmethylene]-1,3-dihydro-indol-2-one]	0.22	1.59	1.99
COc1ccc(-c2cccc3c2/C(=C/c2[nH]c(C)c(C(=O)N4C[C@@H](C)N[C@@H](C)C4)c2C)C(=O)N3)cc1 [Example 40, 3-[4-((cis)-3,5-Dimethyl-piperazine-1-carbonyl)-3,5-dimethyl-1H-pyrrol-2-ylmethylene]-4-(4-methoxy-phenyl)-1,3-dihydro-indol-2-one]	0.19	11.1	0.38
Cc1[nH]c(/C=C2\C(=O)Nc3cccc(-c4ccccc4F)c32)c(C)c1C(=O)N1CCN(C)CC1 [Example 93, 3-[3,5-Dimethyl-4-(4-methyl-piperazine-1-carbonyl)-1H-pyrrol-2-ylmethylene]-4-(2-fluoro-phenyl)-1,3-dihydro-indol-2-one]	0.083	3.76	
Cc1cc(C(=O)NCCn2ccnn2)c(/C=C2\C(=O)Nc3cccc(-c4ccccc4F)c32)[nH]1 [Example 99, 2-[4-(2-Fluoro-phenyl)-2-oxo-1,2-dihydro-indol-3-ylidenemethyl]-5-methyl-1H-pyrrole-3-carboxylic Acid (2-[1,2,3]Triazol-1-yl-ethyl)-amide]	0.61	> 20	
Cc1[nH]c(/C=C2\C(=O)Nc3cccc(-c4cccc(C(F)(F)F)c4)c32)c(C)c1C(=O)N1CCN(C)CC1 [Example 104, 3-[3,5-Dimethyl-4-(4-methyl-piperazine-1-carbonyl)-H-pyrrol-2-ylmethylene]-4-(3-trifluoromethyl-phenyl)-1,3-dihydro-indol-2-one]	0.3	19	
Cc1cc(C(=O)NCCN2CCCC2)c(/C=C2\C(=O)Nc3cccc(-c4ccc(F)c(Cl)c4)c32)[nH]1 [Example 119, 2-[4-(3-Chloro-4-fluoro-phenyl)-2-oxo-1,2-dihydro-indol-3-ylidenemethyl]-5-methyl-1H-pyrrole-3-carboxylic Acid (2-Pyrrolidin-1-yl-ethyl)-amide]	0.24	9.87	
CCN(CC)CCNC(=O)c1c(C)[nH]c(/C=C2\C(=O)Nc3cccc(-c4ccc(OC(F)(F)F)cc4)c32)c1C [Example 140, 2,4-Dimethyl-5-[2-oxo-4-(4-trifluoromethoxy-phenyl)-1,2-dihydro-indol-3-ylidenemethyl]-1H-pyrrole-3-carboxylic Acid (2-Diethylamino-ethyl)-amide]	0.52	> 20	
